According to ChEMBL document CHEMBL5108024, “New C-6 functionalized quinoline NorA inhibitors strongly synergize with ciprofloxacin against planktonic and biofilm growing resistant Staphylococcus aureus strains” (Eur J Med Chem, 2022):
≈ marks a conversion by molar mass, not a printed value. Where “and” joins values, the source holds several entries; their conditions need not be identical. Equal values may be shown once.

Key:
Staphylococcus aureus [1] = assay: Inhibition of EtBr efflux in ciprofloxacin-resistant Staphylococcus aureus 1199B overexpressing norA and harboring A116E grlA mutant assessed as reduction in fluorescence intensity at 50 uM measured for 5 mins by microplate reader analysis relative to control; type: functional
Staphylococcus aureus [2] = assay: Synergistic antibacterial activity against ciprofloxacin-resistant Staphylococcus aureus 1199B overexpressing norA and harboring A116E grlA mutant assessed as fold reduction in ciprofloxacin MIC at 6.25 uM by broth microdilution method; type: functional
Staphylococcus aureus [3] = assay: Synergistic antibacterial activity against Staphylococcus aureus 1199B overexpressing norA and harboring A116E grlA mutant assessed as sixteen fold minimum potentiating concentration incubated in presence of ciprofloxacin by checkerboard assay; type: functional
Staphylococcus aureus [4] = assay: Synergistic antibacterial activity against wild type Staphylococcus aureus 1199 assessed as fold reduction in ciprofloxacin MIC at >=3.13 ug/ml by checkerboard assay; type: functional; conditions: dose >= 3.13 µg/ml
Staphylococcus aureus [5] = assay: Inhibition of EtBr efflux in ciprofloxacin-resistant Staphylococcus aureus 1199B overexpressing norA and harboring A116E grlA mutant assessed as reduction in fluorescence intensity at 10 uM measured for 5 mins by microplate reader analysis relative to control; type: functional
Staphylococcus aureus [6] = assay: Antibacterial activity against ciprofloxacin-susceptible wild type Staphylococcus aureus 1199 assessed as inhibition of bacterial growth by broth microdilution method; type: functional
Staphylococcus aureus [7] = assay: Synergistic antibacterial activity against Staphylococcus aureus 1199B overexpressing norA and harboring A116E grlA mutant assessed as four fold minimum potentiating concentration incubated in presence of ciprofloxacin by checkerboard assay; type: functional
Staphylococcus aureus [8] = assay: Antibacterial activity against ciprofloxacin-resistant Staphylococcus aureus 1199B overexpressing norA and harboring A116E grlA mutant assessed as inhibition of bacterial growth by broth microdilution method; type: functional
Staphylococcus aureus [9] = assay: Synergistic antibacterial activity against Staphylococcus aureus 1199B overexpressing norA and harboring A116E grlA mutant assessed as eight fold minimum potentiating concentration incubated in presence of ciprofloxacin by checkerboard assay; type: functional
Staphylococcus aureus [10] = assay: Synergistic antibiofilm activity against wild type Staphylococcus aureus 1199 assessed as biofilm eradication by measuring ciprofloxacin MBEC at 3.13 ug/ml incubated for 24 hrs by Calgary biofilm device assay; type: functional; conditions: dose 3.13 µg/ml
Staphylococcus aureus [11] = assay: Synergistic antibiofilm activity against wild type Staphylococcus aureus 1199 assessed as biofilm eradication by measuring fold reduction in ciprofloxacin MBEC at 3.13 ug/ml incubated for 24 hrs by Calgary biofilm device assay; type: functional; conditions: dose 3.13 µg/ml
Staphylococcus aureus [12] = assay: Synergistic antibiofilm activity against Staphylococcus aureus 1199B overexpressing norA and harboring A116E grlA mutant assessed as biofilm eradication by measuring ciprofloxacin MBEC at 3.13 ug/ml incubated for 24 hrs by Calgary biofilm device assay; type: functional; conditions: dose 3.13 µg/ml
Staphylococcus aureus [13] = assay: Synergistic antibacterial activity against Staphylococcus aureus 1199B overexpressing norA and harboring A116E grlA mutant assessed as fold reduction in ciprofloxacin MIC at 0.2 to 0.39 ug/ml by checkerboard assay; type: functional; conditions: dose 0.2-0.39 µg/ml
Staphylococcus aureus [14] = assay: Synergistic antibacterial activity against Staphylococcus aureus K2378 overexpressing norA assessed as fold reduction in ciprofloxacin MIC at 0.2 to 12.5 ug/ml by checkerboard assay; type: functional; conditions: dose 0.2-12.5 µg/ml
[15] = Cytotoxicity against human A549 cells assessed as cell viability at 3.13 ug/ml incubated for 24 hrs by MTT assay relative to control; type: toxicity, cell-based; conditions: at 3.13 µg/mL, read-out: Activity
[16] = Cytotoxicity against human THP-1 cells assessed as cell viability incubated for 24 hrs by MTT assay; type: toxicity, cell-based
[17] = Cytotoxicity against human THP-1 cells assessed as cell viability at 12.5 ug/ml incubated for 24 hrs by MTT assay relative to control; type: toxicity, cell-based; conditions: at 12.5 µg/mL, read-out: Activity
[18] = Cytotoxicity against human A549 cells assessed as cell viability at 12.5 ug/ml incubated for 24 hrs by MTT assay relative to control; type: toxicity, cell-based; conditions: at 12.5 µg/mL, read-out: Activity
Staphylococcus aureus [19] = assay: Synergistic antibiofilm activity against Staphylococcus aureus 1199B overexpressing norA and harboring A116E grlA mutant assessed as biofilm eradication by measuring fold reduction in ciprofloxacin MBEC at 3.13 ug/ml incubated for 24 hrs by Calgary biofilm device assay; type: functional; conditions: dose 3.13 µg/ml
Staphylococcus aureus [20] = assay: Antibacterial activity against Staphylococcus aureus K2378 harbouring norA promoting and coding region assessed as inhibition of bacterial growth by broth microdilution method; type: functional
Staphylococcus aureus [21] = assay: Antibacterial activity against norA deleted Staphylococcus aureus K1902 assessed as inhibition of bacterial growth by broth microdilution method; type: functional
[22] = Cytotoxicity against human THP-1 cells assessed as cell viability at 3.13 ug/ml incubated for 24 hrs by MTT assay relative to control; type: toxicity, cell-based; conditions: at 3.13 µg/mL, read-out: Activity

**Q.** Which inhibition (Staphylococcus aureus [1]) does the source give for `CCCOc1ccc(-c2cc(OCCN3CCCCC3)c3cc(OCCC)ccc3n2)cc1` here?
**A.** 73.9%

**Q.** For `CCCOc1ccc(-c2cc(OCCN3CCCCC3)c3cc(Nc4ccccc4)ccc3n2)cc1`, which “fold change (FC)” value (Staphylococcus aureus [2]) is on record?
**A.** 8

**Q.** And the MPC (Staphylococcus aureus [3])?
**A.** 0.78 µg/mL

**Q.** And the “fold change (FC)” value (Staphylococcus aureus [4])?
**A.** 4

**Q.** What about the inhibition (Staphylococcus aureus [5]) of the same molecule?
**A.** 50.1%

**Q.** What about the MIC (Staphylococcus aureus [6]) of the same molecule?
**A.** > 50 mg/L

**Q.** What about the MPC (Staphylococcus aureus [7]) of the same molecule?
**A.** 0.39 µg/mL

**Q.** What about the inhibition (Staphylococcus aureus [1]) of the same molecule?
**A.** 84.2%

**Q.** And the MIC (Staphylococcus aureus [8])?
**A.** > 50 µg/mL and > 519 µM

**Q.** Which inhibition (Staphylococcus aureus [1]) does the source give for `CCCOc1ccc(-c2cc(OCCN3CCCCCC3)c3cc(Br)ccc3n2)cc1` here?
**A.** 76.4%

**Q.** With `CCCOc1ccc(-c2cc(OCCN(CC)CC)c3cc(OC(F)(F)F)ccc3n2)cc1` as the molecule, how does the inhibition (Staphylococcus aureus [5]) read?
**A.** 69.2%

**Q.** And the inhibition (Staphylococcus aureus [1])?
**A.** 83%

**Q.** And the MIC (Staphylococcus aureus [8])?
**A.** > 541 µM

**Q.** Which results are given for `CCCOc1ccc(-c2cc(OCCN3CCCCCC3)c3cc(OC(F)(F)F)ccc3n2)cc1`?
**A.** inhibition (Staphylococcus aureus [5]): 70.4%; inhibition (Staphylococcus aureus [1]): 84.9%; MIC (Staphylococcus aureus [8]): > 512 µM

**Q.** For `CCCOc1ccc(-c2cc(OCCN3CCCCC3)c3cc(OC(C)C)ccc3n2)cc1`, which inhibition (Staphylococcus aureus [1]) is on record?
**A.** 65.3%

**Q.** Which inhibition (Staphylococcus aureus [5]) does the source give for `CCCOc1ccc(-c2cc(OCCN3CCCCC3)c3cc(OC(F)(F)F)ccc3n2)cc1` here?
**A.** 86.9%

**Q.** What about the inhibition (Staphylococcus aureus [1]) of the same molecule?
**A.** 81.2%

**Q.** What about the MIC (Staphylococcus aureus [8]) of the same molecule?
**A.** > 529 µM

**Q.** Which “fold change (FC)” value (Staphylococcus aureus [2]) does the source give for `CCCOc1ccc(-c2cc(OCCN3CCCCC3)c3cc(SC)ccc3n2)cc1` here?
**A.** >=8

**Q.** What about the inhibition (Staphylococcus aureus [5]) of the same molecule?
**A.** 80.2%

**Q.** What about the MIC (Staphylococcus aureus [6]) of the same molecule?
**A.** > 50 mg/L

**Q.** And the inhibition (Staphylococcus aureus [1])?
**A.** 79.9%

**Q.** What about the MPC (Staphylococcus aureus [9]) of the same molecule?
**A.** 6.25 µg/mL

**Q.** And the MIC (Staphylococcus aureus [8])?
**A.** > 50 µg/mL and 71.7 µM

**Q.** With `CCCOc1ccc(-c2cc(OCCN(CC)CC)c3cc(Br)ccc3n2)cc1` as the molecule, how does the inhibition (Staphylococcus aureus [1]) read?
**A.** 63.4%

**Q.** Which MBEC (Staphylococcus aureus [10]) does the source give for `CCCOc1ccc(-c2cc(OCCN3CCCCC3)c3cc(OC)ccc3n2)cc1` here?
**A.** 0.07 µg/mL

**Q.** What about the MPC (Staphylococcus aureus [7]) of the same molecule?
**A.** 0.78 µg/mL

**Q.** And the “fold change (FC)” value (Staphylococcus aureus [11])?
**A.** 286

**Q.** What about the inhibition (Staphylococcus aureus [1]) of the same molecule?
**A.** 97.6%

**Q.** What about the MBEC (Staphylococcus aureus [12]) of the same molecule?
**A.** 2.5 µg/mL

**Q.** What about the MPC (Staphylococcus aureus [9]) of the same molecule?
**A.** 1.56 µg/mL

**Q.** What about the “fold change (FC)” value (Staphylococcus aureus [13]) of the same molecule?
**A.** 2

**Q.** What about the MIC (Staphylococcus aureus [8]) of the same molecule?
**A.** 238 µM (≈ 100 µg/mL)

**Q.** Which results are given for `CCCOc1ccc(-c2cc(OCCN3CCCCC3)c3cc(C(F)(F)F)ccc3n2)cc1`?
**A.** MBEC (Staphylococcus aureus [10]): 0.07 µg/mL; fold change (FC) (Staphylococcus aureus [2]): 8; inhibition (Staphylococcus aureus [5]): 70.1%; MIC (Staphylococcus aureus [6]): > 50 mg/L; inhibition (Staphylococcus aureus [1]): 87.4%; MBEC (Staphylococcus aureus [12]): >50 µg/mL; MPC (Staphylococcus aureus [9]): 3.13 µg/mL; MIC (Staphylococcus aureus [8]): > 50 µg/mL and > 545 µM

**Q.** For `CCCOc1ccc(-c2cc(OCCN3CCCCC3)c3cc(Br)ccc3n2)cc1`, which inhibition (Staphylococcus aureus [1]) is on record?
**A.** 71.6%

**Q.** For `CCCOc1ccc(-c2cc(OCCN3CCCCC3)c3cc(-c4ccccc4)ccc3n2)cc1`, which inhibition (Staphylococcus aureus [5]) is on record?
**A.** 41.9%

**Q.** And the inhibition (Staphylococcus aureus [1])?
**A.** 80.6%

**Q.** With `CCCOc1ccc(-c2cc(OCCN3CCCCCC3)c3cc(C(F)(F)F)ccc3n2)cc1` as the molecule, how does the MBEC (Staphylococcus aureus [10]) read?
**A.** 0.07 µg/mL

**Q.** And the “fold change (FC)” value (Staphylococcus aureus [2])?
**A.** >=8

**Q.** What about the “fold change (FC)” value (Staphylococcus aureus [14]) of the same molecule?
**A.** 4

**Q.** And the inhibition (Staphylococcus aureus [5])?
**A.** 65.6%

**Q.** And the viability at 24 h, 3.13 ug/ml [15]?
**A.** 100%

**Q.** And the CC50 at 24 h [16]?
**A.** > 3.13 mg/L

**Q.** What about the viability at 24 h, 12.5 ug/ml [17] of the same molecule?
**A.** 27%

**Q.** What about the MIC (Staphylococcus aureus [6]) of the same molecule?
**A.** > 50 mg/L

**Q.** What about the viability at 24 h, 12.5 ug/ml [18] of the same molecule?
**A.** 77.1%

**Q.** What about the “fold change (FC)” value (Staphylococcus aureus [11]) of the same molecule?
**A.** 286

**Q.** And the inhibition (Staphylococcus aureus [1])?
**A.** 85.7%

**Q.** And the “fold change (FC)” value (Staphylococcus aureus [19])?
**A.** 512

**Q.** And the MBEC (Staphylococcus aureus [12])?
**A.** 0.63 µg/mL

**Q.** What about the MIC (Staphylococcus aureus [20]) of the same molecule?
**A.** > 50 mg/L

**Q.** What about the MIC (Staphylococcus aureus [21]) of the same molecule?
**A.** > 50 mg/L

**Q.** And the MPC (Staphylococcus aureus [9])?
**A.** 1.56 µg/mL

**Q.** What about the MIC (Staphylococcus aureus [8]) of the same molecule?
**A.** > 50 µg/mL and > 529 µM

**Q.** What about the viability at 24 h, 3.13 ug/ml [22] of the same molecule?
**A.** 65.4%
